According to ChEMBL document CHEMBL5230113, “2-substituted benzothiazoles as antiproliferative agents: Novel insights on structure-activity relationships” (Eur J Med Chem, 2020):
Values belong to the compound of their own block, whether it stands above or below them.

Legend:
PC-3 = experiment: Cytotoxicity against human PC-3 cells assessed as inhibition of cell growth; assay type: functional, cell-based
HeLa = experiment: Antiproliferative activity against human HeLa cells assessed as cell growth inhibition; assay type: functional, cell-based
[1] = Cytotoxicity against human SPCA1 cells assessed as inhibition of cell growth; assay type: functional, cell-based
SW-620 = experiment: Cytotoxicity against human SW620 cells assessed as inhibition of cell growth; assay type: functional, cell-based
[2] = target: Tyrosine-protein kinase ABL1 (Homo sapiens, UniProt P00519); experiment: Inhibition of wild type Abl (unknown origin)
Chain of Tyrosine-protein kinase ABL1 (Homo sapiens, UniProt P00519) (P00519 whole entry): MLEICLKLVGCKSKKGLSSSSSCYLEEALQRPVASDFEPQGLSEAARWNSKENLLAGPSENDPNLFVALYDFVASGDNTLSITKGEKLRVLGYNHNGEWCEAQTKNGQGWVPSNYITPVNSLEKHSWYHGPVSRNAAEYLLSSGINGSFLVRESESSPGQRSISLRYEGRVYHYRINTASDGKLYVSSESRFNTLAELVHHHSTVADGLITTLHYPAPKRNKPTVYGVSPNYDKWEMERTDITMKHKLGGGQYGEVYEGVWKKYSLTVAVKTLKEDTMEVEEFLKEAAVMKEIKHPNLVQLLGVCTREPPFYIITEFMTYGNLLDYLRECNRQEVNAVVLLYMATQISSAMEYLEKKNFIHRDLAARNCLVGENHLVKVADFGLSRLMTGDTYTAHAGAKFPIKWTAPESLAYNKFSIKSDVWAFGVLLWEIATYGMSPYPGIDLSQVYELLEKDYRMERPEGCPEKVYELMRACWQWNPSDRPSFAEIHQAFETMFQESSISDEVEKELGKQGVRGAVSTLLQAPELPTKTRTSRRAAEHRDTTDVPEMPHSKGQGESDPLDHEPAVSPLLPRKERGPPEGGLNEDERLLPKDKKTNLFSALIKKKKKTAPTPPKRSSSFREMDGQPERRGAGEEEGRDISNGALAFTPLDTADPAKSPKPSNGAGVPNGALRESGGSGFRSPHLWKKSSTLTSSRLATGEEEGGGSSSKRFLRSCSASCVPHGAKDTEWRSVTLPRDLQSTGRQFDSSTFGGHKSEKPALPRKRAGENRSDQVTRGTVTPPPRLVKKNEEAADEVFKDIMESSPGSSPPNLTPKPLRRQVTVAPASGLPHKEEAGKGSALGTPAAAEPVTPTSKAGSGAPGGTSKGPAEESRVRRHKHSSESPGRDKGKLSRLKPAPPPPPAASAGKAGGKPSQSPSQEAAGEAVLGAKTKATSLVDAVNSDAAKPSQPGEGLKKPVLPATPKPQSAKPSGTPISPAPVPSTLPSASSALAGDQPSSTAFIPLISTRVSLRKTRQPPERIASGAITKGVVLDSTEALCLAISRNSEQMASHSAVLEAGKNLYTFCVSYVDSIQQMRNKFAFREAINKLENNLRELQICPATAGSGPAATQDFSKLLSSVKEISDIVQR

[3] = target: Tyrosine-protein kinase ABL1 (Mus musculus, UniProt P00520); experiment: Inhibition of wild type Abl in mouse BaF3 cells; assay type: cell-based
Chain of Tyrosine-protein kinase ABL1 (Mus musculus, UniProt P00520) (P00520 whole entry): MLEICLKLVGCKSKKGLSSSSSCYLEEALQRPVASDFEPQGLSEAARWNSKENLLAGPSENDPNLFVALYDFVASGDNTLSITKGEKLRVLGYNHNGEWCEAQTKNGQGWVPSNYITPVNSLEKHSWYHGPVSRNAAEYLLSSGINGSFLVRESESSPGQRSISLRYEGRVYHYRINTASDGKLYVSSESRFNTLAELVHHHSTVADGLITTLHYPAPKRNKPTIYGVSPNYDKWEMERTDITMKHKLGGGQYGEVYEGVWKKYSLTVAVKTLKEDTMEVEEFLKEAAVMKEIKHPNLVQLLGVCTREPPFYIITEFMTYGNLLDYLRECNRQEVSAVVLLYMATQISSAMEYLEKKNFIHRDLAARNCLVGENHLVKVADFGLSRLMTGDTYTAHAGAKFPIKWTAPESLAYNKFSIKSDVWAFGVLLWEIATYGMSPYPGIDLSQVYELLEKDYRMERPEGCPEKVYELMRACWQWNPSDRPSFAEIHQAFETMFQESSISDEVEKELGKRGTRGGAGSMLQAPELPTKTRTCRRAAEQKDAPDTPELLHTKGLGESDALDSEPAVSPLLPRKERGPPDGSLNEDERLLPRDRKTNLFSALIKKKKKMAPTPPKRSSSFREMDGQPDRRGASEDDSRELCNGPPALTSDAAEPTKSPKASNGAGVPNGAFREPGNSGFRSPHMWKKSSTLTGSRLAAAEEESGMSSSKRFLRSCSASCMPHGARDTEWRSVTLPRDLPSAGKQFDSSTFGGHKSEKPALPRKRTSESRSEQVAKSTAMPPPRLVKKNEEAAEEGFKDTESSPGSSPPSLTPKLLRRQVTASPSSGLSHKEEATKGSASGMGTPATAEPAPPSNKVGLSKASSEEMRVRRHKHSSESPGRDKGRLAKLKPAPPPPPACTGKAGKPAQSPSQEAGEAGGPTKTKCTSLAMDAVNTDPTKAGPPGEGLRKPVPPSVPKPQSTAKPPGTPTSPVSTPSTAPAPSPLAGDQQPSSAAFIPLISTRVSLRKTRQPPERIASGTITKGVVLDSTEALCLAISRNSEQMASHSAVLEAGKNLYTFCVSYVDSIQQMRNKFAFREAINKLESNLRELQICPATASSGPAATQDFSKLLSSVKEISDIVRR

[4] = target: Tyrosine-protein kinase ABL1 (Mus musculus, UniProt P00520, T315I); experiment: Inhibition of Abl T315I mutant in mouse BaF3 cells; assay type: cell-based
Chain of Tyrosine-protein kinase ABL1 (Mus musculus, UniProt P00520, T315I) (P00520 whole entry T315I): as the sequence (P00520 whole entry) above, with T315I counted along it

[5] = target: Aryl hydrocarbon receptor (Homo sapiens, UniProt P35869); experiment: Binding affinity to AhR (unknown origin)
Chain of Aryl hydrocarbon receptor (P35869 whole entry): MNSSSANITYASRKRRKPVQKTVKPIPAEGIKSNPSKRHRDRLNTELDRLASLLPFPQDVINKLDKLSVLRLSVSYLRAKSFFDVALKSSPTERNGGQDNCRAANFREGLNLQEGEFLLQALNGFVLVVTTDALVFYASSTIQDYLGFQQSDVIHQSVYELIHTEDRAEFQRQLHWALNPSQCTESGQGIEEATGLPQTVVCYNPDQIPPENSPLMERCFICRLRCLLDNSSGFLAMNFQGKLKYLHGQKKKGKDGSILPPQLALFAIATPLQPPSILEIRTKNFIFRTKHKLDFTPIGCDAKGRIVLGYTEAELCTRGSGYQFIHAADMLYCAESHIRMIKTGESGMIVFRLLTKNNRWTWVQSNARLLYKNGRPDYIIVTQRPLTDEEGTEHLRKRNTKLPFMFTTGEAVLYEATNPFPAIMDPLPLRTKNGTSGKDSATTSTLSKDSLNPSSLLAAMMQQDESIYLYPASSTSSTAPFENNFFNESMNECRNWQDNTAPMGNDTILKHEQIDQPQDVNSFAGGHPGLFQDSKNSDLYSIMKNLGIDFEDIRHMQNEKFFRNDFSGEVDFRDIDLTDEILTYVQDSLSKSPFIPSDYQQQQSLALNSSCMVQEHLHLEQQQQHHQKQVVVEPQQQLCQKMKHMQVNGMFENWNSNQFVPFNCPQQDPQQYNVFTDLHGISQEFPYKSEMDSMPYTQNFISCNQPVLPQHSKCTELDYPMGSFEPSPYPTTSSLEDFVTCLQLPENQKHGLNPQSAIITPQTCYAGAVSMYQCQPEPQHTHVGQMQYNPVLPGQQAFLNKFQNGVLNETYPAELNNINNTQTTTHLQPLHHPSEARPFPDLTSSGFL

Carbonic anhydrase 9 = Carbonic anhydrase 9 (Homo sapiens, UniProt Q16790); experiment: Inhibition of CA9 (unknown origin)
NUGC-3 = experiment: Cytotoxicity against human NUGC-3 cells assessed as cell growth inhibition; assay type: functional
MDA-MB-231 = experiment: Cytotoxicity against human MDA-MB-231 cells assessed as cell growth inhibition; assay type: functional, cell-based
SK-HEP1 = experiment: Cytotoxicity against human SK-HEP1 cells assessed as cell growth inhibition; assay type: functional
Angiopoietin-1 receptor = Angiopoietin-1 receptor (Homo sapiens, UniProt Q02763); experiment: Inhibition of Tie2 (unknown origin)
Chain of Angiopoietin-1 receptor (Q02763 whole entry): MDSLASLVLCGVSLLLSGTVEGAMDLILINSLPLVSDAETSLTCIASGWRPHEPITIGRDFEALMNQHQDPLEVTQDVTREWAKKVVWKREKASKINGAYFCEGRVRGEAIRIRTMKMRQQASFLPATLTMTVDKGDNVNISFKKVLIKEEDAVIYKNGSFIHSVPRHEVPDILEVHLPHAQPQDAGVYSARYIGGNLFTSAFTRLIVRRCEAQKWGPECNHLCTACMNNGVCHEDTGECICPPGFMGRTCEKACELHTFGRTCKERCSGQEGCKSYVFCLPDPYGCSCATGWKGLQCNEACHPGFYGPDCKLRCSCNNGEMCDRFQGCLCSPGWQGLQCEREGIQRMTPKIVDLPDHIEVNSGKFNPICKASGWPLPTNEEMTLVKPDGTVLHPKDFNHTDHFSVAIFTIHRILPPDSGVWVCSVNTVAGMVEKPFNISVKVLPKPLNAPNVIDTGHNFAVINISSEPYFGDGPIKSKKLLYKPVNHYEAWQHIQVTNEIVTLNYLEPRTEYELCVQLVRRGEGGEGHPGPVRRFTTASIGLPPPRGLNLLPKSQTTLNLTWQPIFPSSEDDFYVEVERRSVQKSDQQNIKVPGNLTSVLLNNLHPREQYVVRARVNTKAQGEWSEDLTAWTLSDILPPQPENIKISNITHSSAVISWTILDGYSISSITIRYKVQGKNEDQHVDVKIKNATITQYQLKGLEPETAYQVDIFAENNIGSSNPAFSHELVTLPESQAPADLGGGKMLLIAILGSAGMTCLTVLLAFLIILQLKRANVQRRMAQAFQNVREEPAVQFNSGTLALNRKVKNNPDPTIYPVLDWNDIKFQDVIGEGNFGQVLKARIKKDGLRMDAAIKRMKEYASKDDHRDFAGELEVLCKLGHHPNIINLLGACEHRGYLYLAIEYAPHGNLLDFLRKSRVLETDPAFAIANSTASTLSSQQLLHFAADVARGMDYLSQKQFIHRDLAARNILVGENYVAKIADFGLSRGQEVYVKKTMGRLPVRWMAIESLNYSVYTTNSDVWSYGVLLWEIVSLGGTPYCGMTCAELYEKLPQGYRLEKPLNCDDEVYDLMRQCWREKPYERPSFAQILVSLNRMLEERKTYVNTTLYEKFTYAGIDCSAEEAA

KM12 = experiment: Cytotoxicity against human KM12 cells assessed as cell growth inhibition; assay type: functional
K562 = experiment: Cytotoxicity against human K562 cells; assay type: functional
HCT-116 = experiment: Cytotoxicity against human HCT-116 cells assessed as inhibition of cell growth; assay type: functional, cell-based
MCF7 = experiment: Cytotoxicity against human MCF7 cells assessed as inhibition of cell growth; assay type: functional, cell-based
Tubulin = experiment: Inhibition of tubulin polymerization (unknown origin); assay type: protein-complex assay, Homo sapiens
SMMC-7721 = experiment: Cytotoxicity against human SMMC-7721 cells assessed as cell growth inhibition; assay type: functional, cell-based
HepG2 = experiment: Cytotoxicity against human HepG2 cells assessed as inhibition of cell growth; assay type: functional, cell-based
A549 = experiment: Antiproliferative activity against human A549 cells assessed as cell growth inhibition; assay type: functional, cell-based
[6] = target: Prostaglandin G/H synthase 1 (Homo sapiens, UniProt P23219); experiment: Inhibition of COX-1 (unknown origin)
Chain of Prostaglandin G/H synthase 1 (P23219 whole entry): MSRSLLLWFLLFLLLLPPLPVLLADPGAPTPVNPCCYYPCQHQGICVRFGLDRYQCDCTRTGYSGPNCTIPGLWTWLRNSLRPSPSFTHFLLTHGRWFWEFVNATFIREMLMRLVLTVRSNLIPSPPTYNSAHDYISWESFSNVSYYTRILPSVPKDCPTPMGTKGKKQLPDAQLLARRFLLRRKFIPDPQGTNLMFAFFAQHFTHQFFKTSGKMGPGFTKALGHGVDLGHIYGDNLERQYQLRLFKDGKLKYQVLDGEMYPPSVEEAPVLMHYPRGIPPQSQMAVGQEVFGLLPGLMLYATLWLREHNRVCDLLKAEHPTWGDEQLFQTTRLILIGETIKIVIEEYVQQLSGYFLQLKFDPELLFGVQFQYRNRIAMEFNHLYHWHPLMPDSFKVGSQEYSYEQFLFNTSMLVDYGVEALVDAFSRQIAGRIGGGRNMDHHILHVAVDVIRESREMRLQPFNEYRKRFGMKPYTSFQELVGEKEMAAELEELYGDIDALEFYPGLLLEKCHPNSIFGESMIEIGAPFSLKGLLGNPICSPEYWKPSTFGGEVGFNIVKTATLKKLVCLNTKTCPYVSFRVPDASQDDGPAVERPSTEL

[7] = target: T1, Prostaglandin G/H synthase 2 (Homo sapiens, UniProt P35354); experiment: Inhibition of COX-2 (unknown origin)
T1 sequence (P35354 whole entry): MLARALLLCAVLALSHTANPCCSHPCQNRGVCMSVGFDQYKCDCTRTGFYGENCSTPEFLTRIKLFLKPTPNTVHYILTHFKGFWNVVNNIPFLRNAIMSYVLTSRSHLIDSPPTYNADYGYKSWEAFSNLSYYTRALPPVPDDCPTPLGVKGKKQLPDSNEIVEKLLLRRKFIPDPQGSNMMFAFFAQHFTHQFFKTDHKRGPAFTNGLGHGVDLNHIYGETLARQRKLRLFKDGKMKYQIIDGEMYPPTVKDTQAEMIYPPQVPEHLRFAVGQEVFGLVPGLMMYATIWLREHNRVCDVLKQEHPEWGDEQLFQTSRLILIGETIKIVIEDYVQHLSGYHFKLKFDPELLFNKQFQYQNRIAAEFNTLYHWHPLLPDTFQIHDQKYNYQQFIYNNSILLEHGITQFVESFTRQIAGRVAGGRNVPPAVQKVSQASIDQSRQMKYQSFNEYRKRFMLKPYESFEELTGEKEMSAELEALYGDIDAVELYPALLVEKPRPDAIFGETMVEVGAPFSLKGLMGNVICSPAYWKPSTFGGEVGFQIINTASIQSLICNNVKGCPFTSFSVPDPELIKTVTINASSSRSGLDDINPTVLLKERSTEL

C6 = experiment: Cytotoxicity against rat C6 cells assessed as inhibition of cell growth; assay type: functional, cell-based

IC50 (HeLa): 5130 nM
Structure (SMILES): O=C(CSc1nc2ccc(NC(=O)CCl)cc2s1)NCc1ccccc1
IC50 (PC-3): 6580 nM
IC50 [1]: 3890 nM
IC50 (SW-620): 5120 nM

IC50 [2]: 0.06 nM
IC50 [3]: 3570 nM
IC50 [4]: 2140 nM
Structure (SMILES): CCNC(=O)Nc1nc2ccc(-c3ccccc3OC)cc2s1

IC50 [3]: 89 nM
IC50 [4]: 140 nM
Structure (SMILES): COc1ccccc1-c1ccc2nc(NC(=O)NCCO)sc2c1

IC50 [3]: 46 nM
IC50 [4]: 78 nM
Structure (SMILES): COc1ccccc1-c1ccc2nc(NC(=O)NCCN3CCN(C)CC3)sc2c1

IC50 [5]: 25 nM
Structure (SMILES): COc1ccc(-c2nc3cc(F)ccc3s2)cc1OC

IC50 (Carbonic anhydrase 9): 490 nM
Structure (SMILES): CCCC(Sc1nc2cc(Cl)ccc2s1)C(=O)NS(=O)(=O)c1ccc(OC)cc1 (configuration not stated)

Structure (SMILES): Cc1cc(C)c2sc(NC(=O)c3ccc(C(F)(F)F)cc3)nc2c1
GI50 (NUGC-3): 290 nM
GI50 (MDA-MB-231): 290 nM
GI50 (SK-HEP1): 290 nM

Structure (SMILES): O=C(Nc1nc2ccc([N+](=O)[O-])cc2s1)c1ccc(C(F)(F)F)cc1
GI50 (NUGC-3): 860 nM
GI50 (MDA-MB-231): 860 nM
GI50 (SK-HEP1): 860 nM

Structure (SMILES): Cc1cc(C)c2sc(NC(=O)c3ccc(C#N)cc3)nc2c1
GI50 (NUGC-3): 290 nM
GI50 (MDA-MB-231): 290 nM
GI50 (SK-HEP1): 290 nM

IC50 (Angiopoietin-1 receptor): 0.82 nM
Structure (SMILES): CCN1CCN(Cc2ccc(NC(=O)Nc3nc4ccc(Oc5ccnc(C(=O)NC)c5)cc4s3)cc2C(F)(F)F)CC1
GI50 (KM12): 19 nM
GI50 (K562): 51.4 nM

Structure (SMILES): Nc1ccc2sc(NC(=O)c3sc4ccccc4c3Cl)nc2c1
IC50 (HCT-116): 4000 nM
IC50 (MCF7): 40 nM

Structure (SMILES): O=C(CN1CCCCC1)Nc1ccc(-c2nc3ccccc3s2)cc1
IC50 (MDA-MB-231): 8 nM
IC50 (MCF7): 10 nM

Structure (SMILES): COc1ccc(CN(C(=O)CSc2nc3ccccc3s2)c2cc(OC)c(OC)c(OC)c2)cc1O
IC50 (Tubulin): 1900 nM

Structure (SMILES): O=C(CN1CCOCC1)Nc1ccc(-c2nc3ccccc3s2)cc1
IC50 (MDA-MB-231): 8 nM
IC50 (MCF7): 10 nM

Structure (SMILES): CN1CCN(CC(=O)Nc2ccc(-c3nc4ccccc4s3)cc2)CC1
IC50 (MDA-MB-231): 8 nM
IC50 (MCF7): 10 nM

Structure (SMILES): COc1cccc2sc(NC(=O)c3ccc(C)cc3)nc12
GI50 (NUGC-3): 860 nM
GI50 (MDA-MB-231): 860 nM
GI50 (SK-HEP1): 860 nM

Structure (SMILES): Cc1cc(C)c2sc(NC(=O)c3ccc([N+](=O)[O-])cc3)nc2c1
GI50 (NUGC-3): 290 nM
GI50 (MDA-MB-231): 290 nM
GI50 (SK-HEP1): 290 nM

Structure (SMILES): Cc1ccc2nc(N/N=C/c3cccnc3Nc3ccc(Cl)cc3)sc2c1
IC50 (MCF7): 1030 nM

Structure (SMILES): N=C(N)N/N=C/c1cn(-c2nc3ccc(Oc4ccc(F)cc4)cc3s2)nc1-c1ccccc1
IC50 (SMMC-7721): 2310 nM
IC50 (MDA-MB-231): 2410 nM
IC50 (MCF7): 2230 nM
IC50 (HepG2; Homo sapiens, HepG2, read-out: IC50): 3750 nM

Structure (SMILES): Cc1nc(SCC(=O)Nc2nc3ccc(Cl)cc3s2)n(Nc2ccc([N+](=O)[O-])cc2)c1C
IC50 (HepG2; hepg2): > 500 µg/mL

IC50 (A549): > 25000 nM
IC50 [6]: 9560 nM
IC50 [7]: 100 nM
Structure (SMILES): CC1=NNC(=O)/C1=N/Nc1cccc(-c2nc3ccccc3s2)c1
IC50 (MCF7): > 25000 nM

Structure (SMILES): COc1ccc2nc(NC(=O)CSc3nc(C)c(C)n3Nc3ccc([N+](=O)[O-])cc3)sc2c1
IC50 (C6): > 500 µg/mL
IC50 (HepG2; hepg2): > 500 µg/mL
